Assay results as given in patent US6894073B2, “Use of diterpene compound as a therapeutic agent of inflammation, immune disease or cancer” (Korea Research Institute of Bioscience and Biotechnology, priority 2000, dated 2005).

Legend:
nitric oxide (NO) = assay: Inhibition of NO production (nitrite, Griess reagent) in LPS-stimulated Raw 264.7 macrophage cells; assay type: cell-based, murine; conditions: for NO: 1 μg/ml LPS, 24 hours
Description: To investigate whether kaurane diterpene compounds obtained in Example 1 can inhibit the production of nitric oxide (NO) which induces apoptosis of the immune and neuron cells, the present inventors measured the amount of nitrite (NO2) accumulated in the culture medium of LPS-stimulated murine macrophage cells, which were treated with four kaurane diterpene compounds, kamebanin, kamebacetal A, kamebakaurin, or exisanin A.
In detail, Raw 264.7 murine macrophage cells (ATCC TIB-71) in DMEM medium were seeded to 96-well plate at a cell density of 1×10^5 cells/well and incubated for 3 hours at 37° C., 5% CO2 incubator. To induce NO synthesis in the macrophage cell, 1 μg/ml of LPS and 3 μg/ml, 0.3 μg/ml, and 0.03 μg/ml of kaurane diterpene compounds of the present invention were added to the medium and the plate was incubated for 24 hours. The amount of NO2, the final oxidation product of NO induced by the LPS in the medium was measured as followed. After collecting and centrifuging incubated medium, 100 μl of Griess reagent was added into 100 μl of each culture medium. Then, the medium was incubated for ten minutes at room temperature and absorbance at 550 nm wavelength was measured. Griess reagent was prepared by mixing a solution, wherein 1% sulfanilamide was dissolved in 5% phosphoric acid, and a solution of 0.1% naphyhylethylenediamine-HCl by a 1:1 ratio. To measure the amount of standard NO synthesis, NaNO2 was serially diluted and the absorbance was measured after reacting it with Griess reagent. From this, the standard curve for the amount of NO production was obtained. The amount of NO production in the culture medium treated with each compound was estimated using standard curve for NO determination.

adjuvant arthritis model = assay: Adjuvant arthritis model, paw volume; assay type: in vivo, Sprague-Dawley rat; conditions: for Inhibition rate (%) of arthritis: day 16-22, paw volume on 23rd day
Description: Finding the inhibitory effect of kaurane diterpene compounds on the production of NO, prostaglandin, and TNF, and on the activation of NF-κB in the murine macrophage cells stimulated by LPS, the present inventors investigated the pharmacological efficacy of kaurane diterpene compounds with a adjuvant arthritis model according to the method of Futaki et al. (General Pharmacology, 1993, 24, 105-110). To prepare animal model of the arthritis, 0.05 ml of 0.1% Mycobacterium butyricum suspended in Freud adjuvant (Sigma, USA) was injected intradermally to the left hind paw of the male Sprague-Dawley rat of 180 g weight. On the fifteenth day after injection, the volume of the right paw of the rats was measured using plethysmometer (Ugo-Basile, Italy), and only the rats having arthritis on the right leg were selected. Thereafter, the selected rats were divided into four groups, six rats per each group. Four kinds of kaurane diterpene compounds of the present invention were administered orally to each groups everyday from the sixteenth day to twenty-second day with doses of 3 mg/kg/day, 10 mg/kg/day, and 20 mg/kg/day in the form of the suspended solution with 0.1% methylcellulose. The inhibition rate of arthritis was calculated by comparing the volume of the paw with that of the control on the 23rd day.

Bf1-1/A1 mRNA = assay: TNF-α-induced Bf1-1/A1 mRNA expression, Northern blot, MCF-7 and HT-1080 cells; assay type: cell-based; conditions: 1, 5, 10 μg/ml, 20 ng/ml TNF-α 3 hours
Description: MCF-7 cells (ATCC HTB 22, breast cancer cell line) and HT-1080 cells (ATCC CCL 121, fibroblastoma) were pretreated for 30 minutes with 1 μg/ml, 5 μg/ml, and 10 μg/ml concentrations of four kinds of kaurane diterpene compounds. Thereafter, 20 ng/ml concentrations of TNF-α were treated for three hours to induce the expression of Bf1-1/A1 mRNA. After isolating total RNA from the control and compound-treated cells, the expression of Bf1-1/A1 mRNA was measured by Northern blot analysis. To accomplish this, 20 μg of the total RNA was electrophoresed in the 1% agarose gel containing 2.2M concentrations of formaldehyde. After that, RNA was transferred to nylon membrane and fixed using ultraviolet. The nylon membrane was hybridized with ^32P-labeled probe, which was represented by SEQ. ID NO. 2 and specific to the cDNA of Bf1-1/A1 gene. After washing unbound probe with phosphate buffered saline (PBS) containing sodium dodecyl sulfate (SDS), the membrane was exposed to x-ray film.

Bcl-2 = Bcl-2 expression, Western blot, MCF-7 and HT-1080 cells; assay type: cell-based; conditions: 1, 5, 10 μg/ml, 20 ng/ml TNF-α 3 hours
Description: MCF-7 cells and HT-1080 cells were pretreated for 30 minutes with 1 μg/ml, 5 μg/ml, and 10 μg/ml concentrations of four kinds of kaurane diterpene compounds, respectively. After that, 20 ng/ml concentrations of TNF-α were treated for three hours to induce the expression of cIAP-1 and cIAP-2 proteins. Protein extract was prepared from cultured cells using buffer solution for protein extraction consisting of 50 mM Tris-HCL (pH 7.5), 1% Nonidet P40, 150 mM NaCl, 1 mM EDTA, 1 mM phenylmethyl sulfonyl fluoride, […]. 50 μg of protein extract of the control and compound-treated groups was applied to the SDS-polyacrylamide gel electrophoresis. After transferring the proteins into the polyvinylidene difluoride membrane, the membrane was blocked with 5% skim milk for three hours, and were reacted with antibodies against cIAP-1, cIAP-2, Bcl-2, and Bax proteins (Santa Cruz Biochemicals). The membrane was washed with PBS and was reacted with secondary antibody conjugated with horseradish peroxidase. After washing again with PBS, the protein was detected by ECL system (Amersham Pharmacia Biotec).

COX-2 protein = COX-2 protein expression, Western blot, LPS-stimulated Raw 264.7 cells; assay type: cell-based, murine; conditions: 0.1-3 μg/ml, LPS 1 μg/ml, 18 hours
Description: Raw 264.7 murine macrophage cells were treated simultaneously with 1 μg/ml concentrations of LPS and 0.1 μg/ml, 0.3 μg/ml, 1 μg/ml, and 3 μg/ml concentrations of kamebakaurin and were incubated for 18 hours at 37° C. in a 5% CO2 incubator. After preparing total cell lysates from cultured cells using buffer solution for protein extraction of the Example <7-2>, the expression pattern of proteins was assessed by Western blot analysis.

C=C1C(=O)[C@@]23[C@H](O)C[C@@H]4C(C)(C)CC[C@H](O)[C@@]4(CO)[C@@H]2CC[C@@H]1[C@H]3O [Kamebakaurin, kamebakaurin] was tested, and the “NO” value (nitric oxide (NO); 0.03 μg/ml compound) was 29.1 ± 4.2 µM, the “NO” value (nitric oxide (NO); 0.3 μg/ml compound) was 16.1 ± 2.8 µM and the “NO” value (nitric oxide (NO); 3 μg/ml compound) was 3.6 ± 0.7 µM. For the same compound, the inhibition at 0.03 µg/mL (nitric oxide (NO); Mus musculus, RAW264.7, 0.03 μg/ml compound, read-out: Inhibition rate (%) of NO production) was 44.2%, the inhibition at 0.3 µg/mL (nitric oxide (NO); Mus musculus, RAW264.7, 0.3 μg/ml compound, read-out: Inhibition rate (%) of NO production) was 72.4% and the inhibition at 3 µg/mL (nitric oxide (NO); Mus musculus, RAW264.7, 3 μg/ml compound, read-out: Inhibition rate (%) of NO production) was 99.3%. For the same compound, the IC50 (nitric oxide (NO); Mus musculus, RAW264.7, LPS-stimulated Raw 264.7 cells) was 0.15 µM, the “Inhibition rate (%) of arthritis” value (adjuvant arthritis model; 3 mg/kg/day oral) was 35 ± 19% and the “Inhibition rate (%) of arthritis” value (adjuvant arthritis model; 10 mg/kg/day oral) was 59 ± 11%. For the same compound, the “Inhibition rate (%) of arthritis” value (adjuvant arthritis model; 20 mg/kg/day oral) was 71 ± 17%, the “Suppression of arthritis (in words)” value (adjuvant arthritis model; 3, 10, 20 mg/kg/day oral) was “suppressed dose-dependently” and the “Expression of Bf1-1/A1 mRNA induced by TNF-α” value (Bf1-1/A1 mRNA) was “inhibited”. The “Expression of Bcl-2” value (Bcl-2) was “not inhibited” and the “Expression of COX-2 protein” value (COX-2 protein) was “suppressed dose-dependently”.
